The values below come from patent US4172145A, “Benzo(b)furylacetic acid derivatives to reduce inflammation” (priority 1975, dated 1979).

Structures are written as SMILES. Where two headings read alike, the source gives them in different places.

Series [1] deals with carrageenin-induced edema on the hind paw of rats. In words: Anti-edema effect on carrageenin-induced edema on the hind paw of rats (Carrageenin Edema Method). The format is in vivo, rat (male Wistar strain). Particulars: rat, oral, 3 hours after carrageenin. The procedure: The anti-edema effect was determined according to the method of Yamazaki et al [Yamazaki, H., et al; Folia Pharmacologica Japonica, 63, 302 (1967)].
In this test, a group consisting of five rats (male Wistar strain: weight 100-120 g) was used for the test and control groups. The compounds shown in Table 2 were administered orally to the rats of the test group. After one hour, 0.1 ml of a 1% carrageenin solution (phlogistic agent) was further administered to each rat by subcutaneous injection in one hind paw. To each rat of the control group, 0.1 ml of a 1% carrageenin solution was also administered in a similar manner to that for test rats. 1, 3 and 5 hours after administration of the phlogistic agent, the swelling ratio was calculated by means of the following equation: […]
Test group [formula] in which b: swelling ratio
B: volume of a hind paw without administration of phlogistic agent
B': volume of a hind paw administered with phlogistic agent
Control group [formula] in which a: swelling ratio
A: volume of a hind paw without administration of phlogistic agent
A': volume of a hind paw administered with phlogistic agent
The anti-edema effect was expressed as the suppression ratio of the edema in comparison with the control group to which the test compound had not been administered. The suppression ratio of the edema was determined 3 hours after administration of the phlogistic agent and was calculated by means of the following equation: [formula] in which a and b are as hereinbefore defined.

The subject of series [2] is pain threshold of inflamed and not inflamed paws of rats. In words: Analgesic activity in rats (Randall-Selitto Method). The format is in vivo, rat (male Wister strain). Particulars: Rattus norvegicus, po, read-out: Analgesic Coefficient; for change in vivo at 150 mg/kg: P.O. 150 mg/kg. On the procedure: A group consisting of 6-7 rats (male Wister strain; weight: 100-120 g) was used for the test and control groups in this test. Each rat of both groups was treated with 0.1 ml of a 1% carrageenin solution as phlogistic agent by subcutaneous injection in one hind paw. 3 hours after the administration, pressure was applied to the treated paw of each rat by means of a pressing device (manufactured by Ugobasile S. A., Italy). The threshold of pain induced by press was measured with reference to the shriek and struggle according to the method of Randall and Selitto [Randall, L. O. and Selitto, J. J.; Arch, Int. Pharmocodyn., 111, 409 (1957)]. From each group 5 rats having a good response reaction, i.e. the pain threshold was not more than 70 g, were respectively selected. […] 1, 2 and 3 hours after administration, pressure was again applied to both the inflamed and not inflamed paws of the test rats and the pain threshold was measured. On the other hand, without the administration of the active compound, the pressure was applied to both the inflamed and not inflamed paws of the selected 5 rats of the control group and the pain threshold was measured. The inflamed paws of the test and control groups were compared with each other. Also the not inflamed paws of the both groups were compared with each other.
The analgesic coefficient was calculated by means of the following equation, and the larger analgesic coefficient the better analgesic activity. [formula] in which X: analgesic coefficient (%)
P1 : threshold (g) of the test rats administered with active compounds
P2 : threshold (g) of the control rats without administration of active compound

Series [3] can be described thus: in vivo. Particulars: rat, po. The procedure: A test group consisting of 10-15 rats (male Wistar strain; weight: 180-220 g) was used in this test. Each rat was fasted for 20 hours, but water was allowed ad libitum. The compounds shown in Table 5 were administered orally. After a 20-hour interval during which the rats were not fed but were allowed water, each rat was administered under ether anesthesia with 0.5 ml per 100 g body weight of a 5% solution of pontamine sky blue 6BX in saline (pH 7.2--adjusted with 0.5 N HCl) by intravenous injection. 15 minutes after administration each rat was killed. The stomach was removed and maintained in a 1% formalin solution. After about 2 hours, the stomach was opened along the greater curvature and the length of lesions (dark blue areas against pale blue background) in the glandular portion was measured under a dissecting microscope (10×) provided with a square grid. The sum of the lengths (mm) of lesions was used as ulcer index.

The subject of series [4] is acetic acid-induced writhing reactions in mice. In words: Analgesic activity in mice (AcOH Writhing Method). The format is in vivo, mouse (male dd-strain). Particulars: mouse, oral. The procedure: In this test, three groups, each consisting of 10 mice (male dd-strain; weight: 19-21 g) were used. The compounds shown in Table 3 were administered orally to the test mice. One hour after the administration, the mice were treated with 0.1 ml/10 g of 0.7% acetic acid solution in physiological saline by intraperitoneal injection according to the method of Koster et al [Koster, R., et al; Fed. Proc., 18, 412 (1959)]. Ten minutes after the treatment, the number of writhing reactions occurring in the mice was counted.
(In general: In writhing tests, fewer writhes than in controls are read as antinociception.)

Series [5] in a line: in vivo. Particulars: oral, observed one week, Litchfield and Wilcoxon. The procedure:
In this test, five groups, each consisting of 5 mice (male dd strain; weight: 19-21 g) and 5 rats (male Wistar strain; weight: 100-120 g) were used. […] The LD50 was calculated according to the method of Litchfield and Wilcoxon [Journal of Pharmacol. and Exper. Therap.

Setting [6] is: read-out: Anti-edema Effect, Suppression Ratio.
The mark [7] stands for this setting: 1 h before acetic acid, read-out: Analgesic Effect (AcOH Writhing Method), Suppression Ratio.
Setting [8] is: mouse, read-out: Acute Toxicity (P.O.), LD50, Mouse.
The mark [9] stands for this setting: rat, read-out: Acute Toxicity (P.O.), LD50, Rat.

`CC(C)Cc1ccc(C(C)C(=O)O)cc1` (centres unmarked) [Ibuprofen, reference compound]: the inhibition in vivo at 150 mg/kg in series [1] (setting [6]) amounted to 45.3%; in series [4] (setting [7]), 57.2%. For the same compound, the change in vivo at 150 mg/kg in series [2] (1 h, inflamed paw, 1 hr.) stood at 20.9%; in series [2] (1 h, not inflamed paw, 1 hr.), 0.5%; in series [2] (2 h, inflamed paw, 2 hr.), 28.8%; in series [2] (2 h, not inflamed paw, 2 hr.), 5.5%; in series [2] (3 h, inflamed paw, 3 hr.), 23.3%; in series [2] (3 h, not inflamed paw, 3 hr.), 4.2%. In “in vivo [3]”, this compound yielded a TD50 at 20 h of 46 mg/kg.
For the compound `CCCCC1C(=O)N(c2ccccc2)N(c2ccccc2)C1=O` [Phenylbutazone, reference compound], the inhibition in vivo at 100 mg/kg in series [1] (100 mg/kg (footnote *; printed in 75 mg/kg column), read-out: Anti-edema Effect, Suppression Ratio) was determined as 42.6%; in series [4] (100 mg/kg (footnote *; printed in 75 mg/kg column), read-out: Analgesic Effect (AcOH Writhing Method), Suppression Ratio), 20.8%. Also, the inhibition in vivo at 200 mg/kg in series [1] (200 mg/kg (footnote **; printed in 150 mg/kg column), read-out: Anti-edema Effect, Suppression Ratio) is 53.5%; in series [4] (200 mg/kg (footnote **; printed in 150 mg/kg column), read-out: Analgesic Effect (AcOH Writhing Method), Suppression Ratio) it was 28.2%. Further, the change in vivo at 100 mg/kg in series [2] (1 h, P.O. 100 mg/kg (** on upper line only), not inflamed paw, 1 hr.) came to 3.8%; in series [2] (1 h, P.O. 100 mg/kg, inflamed paw, 1 hr.), 20.7%; in series [2] (2 h, P.O. 100 mg/kg (** on upper line only), not inflamed paw, 2 hr.), 5.4%; in series [2] (2 h, P.O. 100 mg/kg, inflamed paw, 2 hr.), 23.2%; in series [2] (3 h, P.O. 100 mg/kg (** on upper line only), not inflamed paw, 3 hr.), 2%; in series [2] (3 h, P.O. 100 mg/kg, inflamed paw, 3 hr.) it was 27.7%. The same compound gave a TD50 at 20 h in “in vivo [3]” of 76 mg/kg.
By LD50 is commonly meant the dose at which mortality reaches 50%. The term ED50 denotes the midpoint of the dose-response relation. With `Cc1c(CC(=O)O)oc2ccccc12` [Test Compound 1, 3-methyl-2-benzo(b)furylacetic acid], the values for the LD50 at 168 h in “in vivo [5]” (setting [8]) and in the series “in vivo [5]” (setting [9]) were above 1100 mg/kg and above 300 mg/kg, respectively. For the same compound, the inhibition in vivo at 75 mg/kg is 25.3% in series [1] (setting [6]) and 21.7% in series [4] (75 mg/kg, 1 h before acetic acid, read-out: Analgesic Effect (AcOH Writhing Method), Suppression Ratio). For the same compound, the inhibition in vivo at 150 mg/kg in series [1] (setting [6]) stood at 41.2%; in series [4] (setting [7]), 42.9%. In addition, the results for the inhibition in vivo at 300 mg/kg in series [1] (setting [6]) and in series [4] (setting [7]) were 54.2% and 70.9%, respectively. In addition, the ED50 was found to be 240 mg/kg in series [1] and 170 mg/kg in series [4] (read-out: Analgesic Effect (AcOH Writhing Method), ED50). In addition, the change in vivo at 150 mg/kg in series [2] (1 h, inflamed paw, 1 hr.) is 13.8%; in series [2] (1 h, not inflamed paw, 1 hr.), 0.4%; in series [2] (2 h, inflamed paw, 2 hr.), 5.9%; in series [2] (2 h, not inflamed paw, 2 hr.), 1.7%; in series [2] (3 h, inflamed paw, 3 hr.), 4.2%; in series [2] (3 h, not inflamed paw, 3 hr.) it was 0%.
As to `Cc1c(CC(=O)O)oc2ccc(C(C)(C)C)cc12` [Test Compound 6, 5-tert-butyl-3-methyl-2-benzo(b)furylacetic acid], the LD50 at 168 h in the series “in vivo [5]” (setting [8]) was above 1000 mg/kg; in “in vivo [5]” (setting [9]) it was above 300 mg/kg. The inhibition in vivo at 150 mg/kg in series [1] (setting [6]) was determined as 39.9%; in series [4] (setting [7]), 23.7%. Moreover, the change in vivo at 150 mg/kg was 19.5% in series [2] (1 h, inflamed paw, 1 hr.); 6% in series [2] (1 h, not inflamed paw, 1 hr.); 17.8% in series [2] (2 h, inflamed paw, 2 hr.); 0.8% in series [2] (2 h, not inflamed paw, 2 hr.); 14.4% in series [2] (3 h, inflamed paw, 3 hr.); 1.3% in series [2] (3 h, not inflamed paw, 3 hr.).
As to `Cc1c(CC(=O)O)oc2ccc(-c3ccccc3)cc12` [Test Compound 7, 5-phenyl-3-methyl-2-benzo(b)furylacetic acid], the LD50 at 168 h in the series “in vivo [5]” (setting [8]) is 500 to 1000 mg/kg; in the series “in vivo [5]” (setting [9]) it was above 300 mg/kg. Further, in series [1] (setting [6]), the inhibition in vivo at 75 mg/kg was 52.7%. Also, the inhibition in vivo at 150 mg/kg in series [1] (setting [6]) was 63.9%; in series [4] (setting [7]), 20.9%. Moreover, the inhibition in vivo at 300 mg/kg was 73.3% in series [1] (setting [6]) and 77.6% in series [4] (setting [7]). For the same compound, it took a dose of 70 mg/kg to reach the 50% effect level in series [1] (ED50). The change in vivo at 150 mg/kg was 37.2% in series [2] (1 h, inflamed paw, 1 hr.); 8% in series [2] (1 h, not inflamed paw, 1 hr.); 23.3% in series [2] (2 h, inflamed paw, 2 hr.); 2.4% in series [2] (2 h, not inflamed paw, 2 hr.); 11.3% in series [2] (3 h, inflamed paw, 3 hr.); 4.7% in series [2] (3 h, not inflamed paw, 3 hr.).
`Cc1c(CC(=O)O)oc2ccc(Cc3ccccc3)cc12` [Test Compound 8, 5-benzyl-3-methyl-2-benzo(b)furylacetic acid]: the results for the LD50 at 168 h in “in vivo [5]” (setting [8]) and in “in vivo [5]” (setting [9]) were 500 to 1000 mg/kg and above 300 mg/kg, respectively. The figures for the inhibition in vivo at 150 mg/kg in series [1] (setting [6]) and in series [4] (setting [7]) were 31.1% and 30.5%, respectively. For the same compound, the change in vivo at 150 mg/kg in series [2] (1 h, inflamed paw, 1 hr.) was determined as 23.1%; in series [2] (1 h, not inflamed paw, 1 hr.), 1.7%; in series [2] (2 h, inflamed paw, 2 hr.), 24.7%; in series [2] (2 h, not inflamed paw, 2 hr.) it was 0.7%; in series [2] (3 h, inflamed paw, 3 hr.), 29.5%; in series [2] (3 h, not inflamed paw, 3 hr.), 6.1%. In series [4] (setting [7]), the inhibition in vivo at 300 mg/kg is 55.6%.
In the case of `Cc1c(CC(=O)O)oc2ccc(C3CCCCC3)cc12` [Test Compound 9, 5-cyclohexyl-3-methyl-2-benzo(b)furylacetic acid], the LD50 at 168 h in the series “in vivo [5]” (setting [8]) is above 1000 mg/kg; in “in vivo [5]” (setting [9]), above 150 mg/kg. Moreover, the inhibition in vivo at 150 mg/kg in series [1] (setting [6]) was 28%. In addition, the change in vivo at 150 mg/kg in series [2] (1 h, inflamed paw, 1 hr.) was found to be 0%; in series [2] (1 h, not inflamed paw, 1 hr.) it was 0%; in series [2] (2 h, inflamed paw, 2 hr.), 2%; in series [2] (2 h, not inflamed paw, 2 hr.), 0%; in series [2] (3 h, inflamed paw, 3 hr.), 32%; in series [2] (3 h, not inflamed paw, 3 hr.) it was 17.2%.
